This is an account of results in patent US4847297A, “Use of penicillamine for treating immune damaging illnesses” (Degussa Aktiengesellschaft, priority 1985, dated 1989).

The test system of data set [1] is HTLV-III virus (LAV-I virus). Briefly: inhibition of HTLV-III (LAV-I) virus replication in cell culture. It counts as cell-based, HTLV-III virus in H9 cells (human T-cell line). The following applies: in vitro; for inhibition at 20 µg/mL / inhibition at 40 µg/mL: Human immunodeficiency virus 1, H9, 96 h, cell culture; for inhibition at 20 µg/mL: 20 μg/ml, read-out: prevention of replication of HTLV-III virus (LAV-I virus); for inhibition at 40 µg/mL: 40 μg/ml, read-out: effectiveness in vitro (prevention of virus replication). As for the experimental part: At a concentrate of 20 μg/ml the replication of HTLV-III--virus (LAV-I-virus) is prevented in a cell culture with L-penicillamine to an extent of about 95% and with D-penicillamine to about 80%. At a concentration of 40 μg/ml, the effectiveness of both L-penicillamine and D-penicillamine in vitro is nearly 100%.
(§1) HTLV-III virus infection of H9 cells (human T-cell line of a leukemia patient of the National Cancer Institute, Bethesda, Md., USA); the H9 cells were trreated with Polybrene (Hexadimethrine bromide) (2 μg/ml) for 30 minutes at 37° C., subsequently the Polybrene was washed out and the cells were infected with 2×10^8 HTLV virus particles per 4×10^5 H9 cells. Before the infection, the virus was incubated with the material at various concentrations for 45 minutes at 37° C. For controls, the virus was incubated under the same experimental conditions but without addition of the material. The cell cultures were analyzed on the 4th day after infection as follows:
(§2) Immunofluorescence analysis: The effect of D- and L-penicillamine on the propagation of the HTLV-III virus in H9 cells was determined by measuring the proteins p15 and p24 (molecular weight 15,000 respectively 24,000) present in HTLV-III. The immunofluorescence analysis was carried out on fixed methanol:acetone (1:1) cells using monoclonal antibodies (National Cancer Institute USA) against HTLV-III p15 and p24. The infected cells treated with or without penicillamine were secured on toxoplasmosis glass slides. After 30 minutes treatment with methanol-acetone (1:1) at room temperature, the glass slides were stored in closed plastic containers at -20° C. until use. The monoclonal antibodies were added to duplicate wells, incubated at room temperature in a moist chamber for 1 hour and washed with PBS (phosphate buffered saline) solution containing 0.25% Triton X-100 for two hours. The cells were then exposed to goatantimouse IgG (Capell Labs.) bound with fluorescein (FITC) for 1 hour and washed with PBS buffer solution containing 0.25% Triton X-100 overnight. The glass sides were mounted with 50% glycerine and the cell fluorescence observed with a Zeiss fluorescence microscope.

Data set [2] has as its system HTLV-III virus (viral protein p24). Briefly: propagation of HTLV-III in H9 cells, formation of viral protein p24, immunofluorescence with monoclonal antibodies. It counts as cell-based, HTLV-III virus in H9 cells (human T-cell line). The following applies: for prevention of the formation of p24 (in words): FIG. 2, same manner as with p15; for IC100: Human immunodeficiency virus 1, H9, 96 h, p24, FIG. 2, 4th day after infection, read-out: concentration needed for complete inactivation of the viral replication. As to the method:
FIG. 2 is a similar graph where the determination was by the formation of viral protein p24.
as §1, §2
(§3) The effect of D- and L-penicillamine on the propagation of HTLV-III in H9 cells was determined through the function of the material concentration by the formation of the viral proteins p15 (FIG. 1) and p24 (FIG. 2) in an immunofluorescence assay with monoclonal antibodies.

The conditions of data set [3]: in vivo, cited from earlier work.
The subject of data set [4] is HTLV-III infected H9 cells. The data set can be described thus: growth of HTLV-III infected H9 cells. The following applies: for Number of cells/ml × 10^-6, infected / effect on number of infected H9 cells (in words): 4 days after infection; for Number of cells/ml × 10^-6, infected: control 0.18; for effect on number of infected H9 cells (in words): increasing concentration; for protective effect on T-cells: infected H9 cells. It counts as cell-based, human. As to the method: as §1
(§4) In order to show the selectivity of the effect on the replication of HTLV-III virus, the effect of D- and L-penicillamine on the growth of H9 cells can be examined.
(§5) The number of cells was determined 4 days after the experiment began.
4 days after the infection with the HTLV-III virus the number of H9 cells is reduced from 1.24×10^6 to 0.18×10^6.

The test system of data set [5] is plasma proteins (preponderantly albumen). The following applies: cited from earlier work.
A short description of the next data set: in vitro. Type of data set: cell-based, human. The note with it: human, h9 cells. As to the method: as §1, §4, §5
For data set [6], the system named is HTLV-III virus (viral protein p15). Briefly: propagation of HTLV-III in H9 cells, formation of viral protein p15, immunofluorescence with monoclonal antibodies. Type of data set: cell-based, HTLV-III virus in H9 cells (human T-cell line). The following applies: for prevention of the formation of p15 virus protein (in words): FIG. 1, concentration dependence; for inhibition at 40 µg/mL: Human immunodeficiency virus 1, H9, 40 μg/ml, 4th day after infection. As to the method: FIG. 1 is a graph of the effect of D- and L-penicillamine on the propagation of HTLV-III in H9 cells through the function of the concentration determined by the formation of the viral protein 15; and
as §1, §2, §3

A further data set has as its system non-infected H9 cells. The data set can be described thus: in vitro. Type of data set: cell-based, human. As for the experimental part: as §1, §4, §5

Consider `CC(C)(S)[C@@H](N)C(=O)O` [D-penicillamine], for which, in data set [1], the inhibition at 20 µg/mL is around 80% and the inhibition at 40 µg/mL is around 100%. Besides, in data set [2], the “prevention of the formation of p24 (in words)” value is on record as “prevent the formation of p24” and the IC100 was 40 µg/mL. Also, the “resorption after oral administration” value in data set [3] (po) is on record as “about 60%”. Besides, in data set [3], the “distribution over the entire organism” value is recorded as “distributed relatively quickly over the entire organism”; the “elimination in unchanged form” value is given as “up to 10%”; the “route and form of elimination” value is on record as “predominantly via the kidneys, the greatest part as disulfide”. Besides, in data set [4] (30 μg/ml), the “Number of cells/ml × 10^-6, infected” value was 0.27 cells/ml × 10^-6. Also, the “Number of cells/ml × 10^-6, infected” value in data set [4] (40 μg/ml) worked out at 0.35 cells/ml × 10^-6. For the same compound, in data set [4] (100 μg/ml), the “Number of cells/ml × 10^-6, infected” value was found to be 0.8 cells/ml × 10^-6. Further, in data set [4], the “effect on number of infected H9 cells (in words)” value is “considerable increase of the cell number” and the “protective effect on T-cells” value is given as “protective effect on T-cells”. In data set [5], the “binding to plasma proteins” value is listed as “bound to plasma proteins (preponderantly albumen)” and the “free (not protein bound) concentration with increasing dosage” value is reported as “obviously increases with increasing dosage”. This compound also had an MCC at 96 h in “in vitro” above 100 µg/mL. For the same compound, in data set [6], the “prevention of the formation of p15 virus protein (in words)” value is reported as “concentration dependent prevention of the formation of p15 virus protein” and the inhibition at 40 µg/mL lay in the range of 98.5 to 99.4%.

As for `CC(C)(S)[C@H](N)C(=O)O` [L-penicillamine], in data set [1], the inhibition at 20 µg/mL was around 95% and the inhibition at 40 µg/mL was around 100%. In addition, in data set [2], the “prevention of the formation of p24 (in words)” value is on record as “prevent the formation of p24” and the IC100 worked out at 40 µg/mL. Moreover, the “Number of cells/ml × 10^-6, infected” value in data set [4] (30 μg/ml) amounted to 0.35 cells/ml × 10^-6. Besides, in data set [4] (40 μg/ml), the “Number of cells/ml × 10^-6, infected” value is on record as 0.38 cells/ml × 10^-6. The “Number of cells/ml × 10^-6, infected” value in data set [4] (100 μg/ml) is on record as 0.98 cells/ml × 10^-6. In data set [4], the “effect on number of infected H9 cells (in words)” value is listed as “considerable increase of the cell number” and the “protective effect on T-cells” value is “protective effect on T-cells”. In data set [6], the “prevention of the formation of p15 virus protein (in words)” value is recorded as “concentration dependent prevention of the formation of p15 virus protein” and the inhibition at 40 µg/mL fell in the range of 98.5 to 99.4%. Further, in data set [6] (lower concentration, FIG. 1), the “effectiveness at lower concentration, L- versus D-penicillamine (p15)” value was “more effective than D-penicillamine”.

For `CC(C)(S)[C@H](N)C(=O)O` [penicillamine], the “inhibition of virus replication (in words)” value in data set [1] is “can greatly inhibit the virus replication”. Besides, the “toxicity to the normal cell growth” value with non-infected H9 cells is on record as “shows no toxicity to the normal cell growth”.
